{
  "source": "paper PMC3177827",
  "about": "(PLoS ONE, 2011)",
  "key": {"[1]": {"test_system": "pepsin", "assay": "Degradation of 33-mer and 26-mer gliadin peptides by pepsin", "format": "in vitro ADME", "details": "peptide 250 µg/ml; pepsin 1 µg/ml in 0.1 M HCl, pH 1.0; sampled at t = 0 and 24 h; RP-HPLC", "experimental": "(§1) Synthetic highly immunogenic peptides derived from α2-gliadin ([…]; 33-mer) or γ-gliadin ([…]; 26-mer) were synthesized at a purity of 95% (21st Century Biochemicals, Marlboro, MA), dissolved in deionized water to 10 mg/ml. The peptides (final concentration 250 µg/ml) were incubated with trypsin or chymotrypsin (1 µg/ml in 50 mM ammonium bicarbonate, pH 8.0), or pepsin (1 µg/ml in 0.1 M HCl, pH 1.0) or strain WSA-8 (R. aeria) in saliva ion buffer (OD620 1.2, pH 7.0). Degradation of the 33-mer and 26-mer over time was monitored in 100 µl aliquots by RP-HPLC as reported previously.\n(§2) The 100 µl sample aliquots were mixed with 900 µl buffer A containing 0.1% (v/v) trifluoroacetic acid (TFA), filtered and analyzed by RP-HPLC using a HPLC Model 715 (Gilson, Middleton, WI) and a C-18 column (TSK-GEL 5 µm, ODS-120T, 4.6×250 mm, TOSOHaas, Montgomeryville, PA). Peptides were eluted using a linear gradient from 0% to 55% buffer B containing 80% (v/v) acetonitrile and 0.1% (v/v) TFA over a 75 min time interval at a flow rate of 1.0 ml/min. The eluate was monitored at 219 and 230 nm and eluting fractions were collected using peak width and peak sensitivity settings of 1.2 and 5, respectively (Unipoint version 3.3, Gilson). […]\n(§3) Figure 4 Degradation of the 33-mer by mammalian enzymes and by enzymes associated with R. aeria. […] Degradation of the 33-mer in incubation aliquots was monitored by RP-HPLC. […]"}, "[2]": {"test_system": "trypsin", "assay": "Degradation of 33-mer and 26-mer gliadin peptides by trypsin", "format": "in vitro ADME", "details": "peptide 250 µg/ml; trypsin 1 µg/ml in 50 mM ammonium bicarbonate, pH 8.0; sampled at t = 0 and 24 h; RP-HPLC", "experimental": "as §1, §2, §3"}, "[3]": {"test_system": "chymotrypsin", "assay": "Degradation of 33-mer and 26-mer gliadin peptides by chymotrypsin", "format": "in vitro ADME", "details": "peptide 250 µg/ml; chymotrypsin 1 µg/ml in 50 mM ammonium bicarbonate, pH 8.0; sampled at t = 0 and 24 h; RP-HPLC", "experimental": "as §1, §2, §3"}, "[4]": {"test_system": "WSA-8 (R. aeria)", "assay": "Degradation and fragment analysis of 33-mer and 26-mer in a suspension of WSA-8", "format": "in vitro ADME, Rothia aeria", "details": "peptide 250 µg/ml; WSA-8 (R. aeria) in saliva ion buffer, OD620 1.2, pH 7.0; sampled at 0, 30, 60, 120 min; RP-HPLC", "experimental": "as §1\nas §2, with “Peptides were eluted using a linear gradient from 0% to 55% buffer B containing 80% (v/v) acetonitrile and 0.1% (v/v) TFA over a 75 min time interval at a flow rate of 1.0 ml/min.” left out\nAll dried peaks were dissolved in 25 µl of a solution containing 5% acetonitrile and 0.1% formic acid. […] The raw MS/MS data of the peptide ions in each of the analyzed samples were searched against an in-house generated database containing the sequences of the 33-mer and the 26-mer using SEQUEST software (Bioworks Browser 3.3.1, Thermo-Finnigan). […]"}, "[5]": {"assay": "bacterial suspension in saliva ion buffer (OD620 1.2)", "details": "up to 24 h"}, "[6]": {"assay": "WSA-8 cells (OD620 1.2) in 20 mM Tris solution, pH 2.0", "details": "Rothia aeria (strain WSA-8), up to 72 h"}, "[7]": {"test_system": "WSA-8 (R. aeria)", "assay": "pH activity analysis: Z-YPQ-pNA hydrolysis by WSA-8 cells", "format": "biochemical, Rothia aeria", "details": "Z-YPQ-pNA 200 µM, WSA-8 cells OD620 1.2, 20 mM Tris, 405 nm, activity not reactivated at neutral pH", "experimental": "Figure 6 Gliadin zymography (6%) of Rothia strains and pH activity analysis. In the zymogram gels 150 µl cells (OD620 5.0) were applied per lane. Lane 1, strain WSA-2B (R. mucilaginosa); lanes 2: strain WSA-8 (R. aeria), lane 3: strain WSA-26 (R. mucilaginosa); lane 4: strain ATCC 25296 (R. mucilaginosa). A, gel developed at pH 7.0; B, gel developed at pH 3.0. C, Z-YPQ-pNA (200 µM) hydrolysis by WSA-8 cells (OD620 1.2) measured in 20 mM Tris solutions ranging in pH from 2.0 to 10.0. Measurements at 405 nm were carried out hourly for the first 6 hours and after 24 h and 72 h.\nTo determine protease activities under conditions that are representative of the stomach, the zymogram gel with the four Rothia strains was also developed at pH 3.0 (Figure 6B). […] To further investigate the pH range over which strain R. aeria was active, Z-YPQ-pNA substrate hydrolysis was measured in solutions ranging in pH from 2.0 to 10.0. […] Substrate hydrolysis rates decreased in parallel with decreasing pH values from pH 7.0 to pH 4.0. At pH 3.0 substrate cleavage was noted only after 72 h incubation. The slow but noticeable enzyme activity of R. aeria at this pH value is consistent with the gliadin zymogram results presented in Figure 6B."}},
  "note": "Where a SMILES comes first, the peptide text is derived from it. The star is where a group is joined. pNA = O=[N+]([O-])c1ccc(N*)cc1; Cbz = O=C(OCc1ccccc1)*",
  "data": [
    {"compound": "CC(C)C[C@H](NC(=O)[C@@H](N)Cc1ccccc1)C(=O)N[C@@H](CCC(N)=O)C(=O)N1CCC[C@H]1C(=O)N[C@@H](CCC(N)=O)C(=O)N[C@@H](CCC(N)=O)C(=O)N1CCC[C@H]1C(=O)N[C@@H](Cc1ccccc1)C(=O)N1CCC[C@H]1C(=O)N[C@@H](CCC(N)=O)C(=O)N[C@@H](CCC(N)=O)C(=O)N1CCC[C@H]1C(=O)N[C@@H](CCC(N)=O)C(=O)N[C@@H](CCC(N)=O)C(=O)N1CCC[C@H]1C(=O)N[C@@H](Cc1ccc(O)cc1)C(=O)N1CCC[C@H]1C(=O)N[C@@H](CCC(N)=O)C(=O)N[C@@H](CCC(N)=O)C(=O)N1CCC[C@H]1C(=O)N[C@@H](CCC(N)=O)C(=O)N[C@@H](CCC(N)=O)C(=O)N1CCC[C@H]1C(=O)N[C@@H](Cc1ccccc1)C(=O)N1CCC[C@H]1C(=O)N[C@@H](CCC(N)=O)C(=O)O", "note": "[26-mer] (H-FLQPQQPFPQQPQQPYPQQPQQPFPQ-OH)", "values": [
      {"measurement": "degradation by pepsin", "setting": "[1]", "result": "resistant to degradation"},
      {"measurement": "degradation by trypsin", "setting": "[2]", "result": "resistant to degradation"},
      {"measurement": "degradation by chymotrypsin", "setting": "[3]", "result": "resistant to degradation"},
      {"measurement": "degradation in a cell suspension of WSA-8 over the 2 h time interval", "setting": "[4]", "result": "sensitive to proteolytic degradation"}
    ]},
    {"compound": "CC(C)C[C@H](NC(=O)[C@H](CCC(N)=O)NC(=O)[C@@H](N)CC(C)C)C(=O)N[C@@H](CCC(N)=O)C(=O)N1CCC[C@H]1C(=O)N[C@@H](Cc1ccccc1)C(=O)N1CCC[C@H]1C(=O)N[C@@H](CCC(N)=O)C(=O)N1CCC[C@H]1C(=O)N[C@@H](CCC(N)=O)C(=O)N[C@@H](CC(C)C)C(=O)N1CCC[C@H]1C(=O)N[C@@H](Cc1ccc(O)cc1)C(=O)N1CCC[C@H]1C(=O)N[C@@H](CCC(N)=O)C(=O)N1CCC[C@H]1C(=O)N[C@@H](CCC(N)=O)C(=O)N[C@@H](CC(C)C)C(=O)N1CCC[C@H]1C(=O)N[C@@H](Cc1ccc(O)cc1)C(=O)N1CCC[C@H]1C(=O)N[C@@H](CCC(N)=O)C(=O)N1CCC[C@H]1C(=O)N[C@@H](CCC(N)=O)C(=O)N[C@@H](CC(C)C)C(=O)N1CCC[C@H]1C(=O)N[C@@H](Cc1ccc(O)cc1)C(=O)N1CCC[C@H]1C(=O)N[C@@H](CCC(N)=O)C(=O)N1CCC[C@H]1C(=O)N[C@@H](CCC(N)=O)C(=O)N1CCC[C@H]1C(=O)N[C@@H](Cc1ccccc1)C(=O)O", "note": "[33-mer] (H-LQLQPFPQPQLPYPQPQLPYPQPQLPYPQPQPF-OH)", "values": [
      {"measurement": "degradation by pepsin", "setting": "[1]", "result": "resistant to degradation"},
      {"measurement": "degradation by trypsin", "setting": "[2]", "result": "resistant to degradation"},
      {"measurement": "degradation by chymotrypsin", "setting": "[3]", "result": "resistant to degradation"}
    ]},
    {"compound": "Cbz-Tyr-Pro-Gln-pNA", "values": [
      {"measurement": "not cleaved", "setting": "[5]; Bifidobacterium dentium HOT-588 (strain PAN-5)", "result": "− after 24 h"},
      {"measurement": "not cleaved", "setting": "[5]; Bifidobacterium dentium HOT-588 (strain PAN-8)", "result": "− after 24 h"},
      {"measurement": "not cleaved", "setting": "[5]; Bifidobacterium dentium HOT-588 (strain PAN-18)", "result": "− after 24 h"},
      {"measurement": "not cleaved", "setting": "[5]; Bifidobacterium dentium HOT-588 (strain PAN-19)", "result": "− after 24 h"},
      {"measurement": "not cleaved", "setting": "[5]; Bifidobacterium dentium HOT-588 (strain PAN-23)", "result": "− after 24 h"},
      {"measurement": "not cleaved", "setting": "[5]; Bifidobacterium longum HOT-B54 (strain WSAN-14)", "result": "− after 24 h"},
      {"measurement": "not cleaved", "setting": "[5]; Bifidobacterium longum HOT-B54 (strain WSAN-16)", "result": "− after 24 h"},
      {"measurement": "not cleaved", "setting": "[5]; Bifidobacterium longum HOT-B54 (strain WSAN-24)", "result": "− after 24 h"},
      {"measurement": "not cleaved", "setting": "[5]; Staphylococcus epidermidis HOT-601 (strain WSA-10)", "result": "− (inactive) after 24 h"},
      {"measurement": "not cleaved", "setting": "[5]; Streptococcus pneumoniae HOT-734 (strain PAN-0)", "result": "− after 24 h"},
      {"measurement": "not cleaved", "setting": "[5]; Veilonella atypica HOT-524 (strain WSAN-25)", "result": "− after 24 h"},
      {"measurement": "not cleaved", "setting": "[6]", "result": "no Z-YPQ-pNA hydrolysis could be observed"}
    ]},
    {"compound": "benzyloxycarbonyl-YPQ-paranitroanilide [Z-YPQ-pNA]", "values": [
      {"measurement": "substrate hydrolysis at pH 2.0", "setting": "[7]", "result": "no Z-YPQ-pNA hydrolysis could be observed"}
    ]}
  ]
}
